Measurements as given in the NIST ThermoML archive (doi:10.1016/j.jct.2004.09.007).

Assay: molar heat capacity at constant pressure; xn = mol fraction of the nth substance listed
Conditions: 101.3 kPa, Liquid, Large sample (1 g) DSC

CC(O)CCO (stereo not drawn) [1,3-butanediol] + CCCCO
molar heat capacity at constant pressure [J/K/mol]
Conditions | x1 = 0.189 | x1 = 0.2983 | x1 = 0.436 | x1 = 0.5902 | x1 = 0.7056 | x1 = 0.8961 | x1 = 1
285.15 K | 178.21 | 183.56 | 189.77 | 196.24 | 200.97 | 210.06 | 211.74
285.65 K | 178.59 | 183.85 | 190.08 | 196.61 | 201.4 | 208.67 | 212.17
288.15 K | 179.92 | 185.21 | 191.37 | 198 | 202.79 | 210.1 | 213.57
290.65 K | 181.38 | 186.6 | 192.85 | 199.46 | 204.22 | 211.53 | 215.06
293.15 K | 182.92 | 188.08 | 194.38 | 200.87 | 205.67 | 213 | 216.58
295.65 K | 184.43 | 189.64 | 195.81 | 202.4 | 207.15 | 214.51 | 218.04
298.15 K | 186.01 | 191.11 | 197.31 | 203.91 | 208.58 | 216.08 | 219.62
300.65 K | 187.6 | 192.65 | 198.88 | 205.47 | 210.16 | 217.6 | 221.14
303.15 K | 189.31 | 194.35 | 200.51 | 207.08 | 211.81 | 219.24 | 222.8
305.65 K | 191.04 | 195.99 | 202.12 | 208.6 | 213.36 | 220.73 | 224.37
308.15 K | 192.78 | 197.71 | 203.81 | 210.26 | 215.04 | 222.49 | 226.07
310.65 K | 194.41 | 199.34 | 205.42 | 211.86 | 216.58 | 224.04 | 227.65
313.15 K | 196.3 | 201.02 | 207.06 | 213.43 | 218.21 | 225.64 | 229.24
315.65 K | 198.07 | 202.81 | 208.71 | 215.01 | 219.75 | 227.18 | 230.82
318.15 K | 199.98 | 204.63 | 210.53 | 216.77 | 221.57 | 228.97 | 232.6
320.65 K | 201.89 | 206.47 | 212.31 | 218.48 | 223.19 | 230.61 | 234.14
323.15 K | 203.75 | 208.15 | 214.02 | 220.21 | 224.86 | 232.26 | 235.83
325.65 K | 205.57 | 210.02 | 215.77 | 221.9 | 226.54 | 233.95 | 237.52
328.15 K | 207.42 | 211.77 | 217.34 | 223.44 | 228.18 | 235.52 | 239.08
330.65 K | 209.47 | 213.61 | 219.1 | 225.17 | 229.9 | 237.35 | 240.59
333.15 K | 211.36 | 215.41 | 220.86 | 226.84 | 231.42 | 238.77 | 242.28
335.65 K | 213.23 | 217.15 | 222.54 | 228.47 | 232.95 | 240.35 | 243.86
338.15 K | 215.01 | 218.85 | 224.14 | 229.97 | 234.44 | 241.71 | 245.11
340.65 K | 217.62 | 220.95 | 226.11 | 231.92 | 236.35 | 243.67 | 247.19
343.15 K | 219.25 | 222.78 | 227.81 | 233.46 | 237.95 | 245.19 | 248.62
345.65 K | 221.09 | 224.51 | 229.58 | 235.21 | 239.85 | 246.7 | 250.13
348.15 K | 223.12 | 226.46 | 231.31 | 236.83 | 241.5 | 248.27 | 251.66
350.65 K | 224.98 | 228.29 | 232.97 | 238.43 | 242.73 | 249.77 | 253.24
353.15 K | 227.13 | 230.3 | 234.85 | 240.2 | 244.5 | 251.52 | 254.86
